According to patent US7807201B2, “Antifungal agent comprising natural plant extracts” (Binex Co., Ltd., priority 2007, dated 2010):

Test system: Saprolegnia parasitica
Experiment: Antifungal effect at different concentrations by 24-well plate method (MIC)
Type: cell-based
Details: for Antifungal effect: water mould Saprolegnia parasitica on GY agar
Source text: Water moulds were taken from the body surface of rainbow trout. The water moulds were isolated and subcultured using GY medium (broth) containing 10 g/L of glucose and 2.5 g/L of yeast extract and GY medium (agar) containing 10 g/L of glucose, 2.5 g/L of yeast extract and 7.5 g/L of agar. The pathogenic water moulds were isolated and identified as Saprolegnia parasitica (Gene Bank Data homology search result: 99%) through ITS-5.8S rDNA sequencing at the Korean Culture Center of Microorganisms (KCCM) of the Korean Federation of Culture Collections (KFCC). The natural product sweet flag extract was compared with malachite green. Antifungal effect and minimal inhibitory concentration (MIC) were tested by the 24-well plate method and the diffusion method.
GY agar was placed on a sterilized 24-well plate. […] Hyphae of Saprolegnia parasitica, which had been cultured in GY agar plate, taken with a 50 mL syringe were added to each plate and antifungal activity test was carried out for 72 hours. Photographs were taken every 24 hours.
GY agar was placed on a sterilized 24-well plate. After waiting until the medium was dry, each 100 μL of 20 ppm, 2 ppm and 0.2 ppm malachite green (MG) was added to the GY medium (control), in the same manner as in FIG. 1. Hyphae of Saprolegnia parasitica, which had been cultured in GY agar plate, taken with a 50 mL syringe were added to each plate and antifungal activity test was carried out for 72 hours. Photographs were taken every 24 hours.

Question: For CN(C)c1ccc(C(=C2C=CC(=[N+](C)C)C=C2)c2ccccc2)cc1 [MG, malachite green], which Antifungal effect (0.2 ppm) is on record?
Answer: The Antifungal effect was “+”.

Question: And the Antifungal effect (2 ppm)?
Answer: Its Antifungal effect is “++”.

Question: What about the Antifungal effect (20 ppm) of the same compound?
Answer: Its Antifungal effect is “+++”.

Question: What about the MIC (Saprolegnia parasitica, read-out: MIC (minimal inhibitory concentration)) of the same compound?
Answer: Its MIC is 2 µg/mL.
